Measured values from patent US8034831B2, “Methods for the treatment and management of myeloproliferative diseases using 4-(amino)-2-(2,6-Dioxo(3-piperidyl)-isoindoline-1,3-dione in combination with other therapies” (Celgene Corporation, priority 2002, dated 2011).

Tested on: myeloproliferative diseases
Assay: Treatment of patients with myeloproliferative diseases
Type: in vivo, human
Details: for clinical outcome of therapy (spleen, blood counts, constitutional symptoms): therapy with the JAK or HDAC inhibitor, patients
Method: 4-(Amino)-2-(2,6-dioxo(3-piperidyl))-isoindoline-1,3-dione (Pomalidomide or Actimid™) is orally administered to patients with myeloproliferative diseases in an amount of 0.1 to 10 mg per day in combination with prednisone, JAK1 inhibitor (e.g., INCB018424), JAK2 inhibitor (e.g., SB11518, XL019, TG101348, and INCB018424), FLT3 inhibitor (e.g., TG101348), BCL2 inhibitor (e.g., GX15-070MS) and/or HDAC inhibitor (e.g., ITF2357).

CCN(CC)Cc1ccc2cc(COC(=O)Nc3ccc(C(=O)NO)cc3)ccc2c1 [ITF2357]
clinical outcome of therapy (spleen, blood counts, constitutional symptoms): improvement in constitutional symptoms, spleen size and some hematologic responses

Nc1cccc2c1C(=O)N(C1CCC(=O)NC1=O)C2=O (stereo not shown) [4-(Amino)-2-(2,6-dioxo(3-piperidyl))-isoindoline-1,3-dione]
efficacy in treating myeloproliferative diseases (oral, 0.1 to 10 mg per day, in combination with prednisone, JAK1, JAK2, FLT3, BCL2 and/or HDAC inhibitor): effective in treating myeloproliferative diseases

N#CC[C@H](C1CCCC1)n1cc(-c2ncnc3[nH]ccc23)cn1 [INCB018424]
clinical outcome of therapy (spleen, blood counts, constitutional symptoms): dramatic spleen shrinkage and improvement in constitutional symptoms

O=C(Nc1ccc(-c2ccnc(Nc3ccc(N4CCOCC4)cc3)n2)cc1)C1CCCN1 (stereo not shown) [XL019]
clinical outcome of therapy (spleen, blood counts, constitutional symptoms): reductions in splenomegaly and leukocytosis, stabilization of hemoglobin counts, improvements in blast counts, and resolution or improvement in generalized constitutional symptoms
